Experimental data taken from patent US7803764B2, “Amphipathic glycopeptides” (The Arizona Board of Regents on Behalf of the University of …, priority 2004, dated 2010).
Non-standard residues stand in square brackets, D forms with d. No end group written: not given here. *: point of attachment. βGlc = OC[C@H]1O[C@@H](*)[C@H](O)[C@@H](O)[C@@H]1O; Aib = CC(C)(N)C(=O)O; βAla = NCCC(=O)O

Tests used:
[1] = helicity by circular dichroism; type: physicochemical; details: for % α-helicity: CD, SDS micelles (30 mM), pH = 7.0, 18° C.
Experimental: Circular Dichroism. All of the circular dichroism experiments were carried out on Aviv Associates model 60DS using an Endcal Model RTE4DD water circulator as a temperature-control vehicle. The instrument was calibrated by using d-10-camphorsulphonic acid. The spectra were recorded between 200 and 250 nm by using the continuous mode with a 1.5 nm bandwidth, a three second response and a scan step of 0.5 nm in a cell with a path length of 0.1 cm. Three or five scans were accumulated and averaged for each spectrum. Glycopeptide stock solutions were prepared by weighing the required amount, using Cahn/Ventron Instruments Model 21 automatic analytical electrobalance, to make 1 mL of a 0.5-1.0 mM solution and the pH was adjusted to the desired value. Samples were prepared by diluting the stock solution to 70-80 μM. All observed spectra were baseline-subtracted and smoothed by adjacent average of 5 points using Microcal Origin Ver. 5.0 software (Microcal Software Inc, USA). The molar ellipticities were determined using the formula [θ]=[θ]obs·(MRW)/10·l·C, where [θ]obs observed ellipticity in millidegrees, MRW is the mean residue weight, l is the cell path length in centimeters and C is the glycopeptide concentration in mg/mL. The percent α-helicity was determined by using the formula % helix=[θ]n→π*/−40,000 (1−2.5/n)·100, where n represents the number of amide bonds (including the C-terminal amide) in the glycopeptide and [θ]n→π** is molar ellipticity of n→π* transition band at 222 nm.^55
Conformational Analysis by CD. Circular dichroism (CD) is a powerful and simple tool for identifying secondary structure in both peptides and proteins.^64 All the peptides were subjected to CD analysis in H2O, TFE-H2O mixtures, SDS micelles and phospholipid bicelles. In H2O, a negative band near 200 nm is observed that arises from the π→π* electronic transition and is typical of random coil peptides. […] This behavior is explained as nascent helices.^65 In these nascent helices, helix CD signals could be induced by the addition of TFE.^66 All the glycopeptides gave an increased helix CD signal in TFE. The percentage of helicity increases as TFE concentration increases, but reached a maximum at 30% TFE. The increase in helicity in TFE can be attributed to decreased competition by H2O for hydrogen bonding to the backbone amides. […] In the presence of SDS micelles and anionic bicelles, the band at 200 nm underwent a red shift (higher value) and an additional shoulder appears around 222 nm as a result of the n→π* transition. […] The negative maxima at 222 nm (n→π* transition band) is used to calculate the helical content of polypeptides and proteins. The accepted value for a peptide that is 100% helical is approximately −35,000. It was observed that changes in amplitude of the bands up to 30% depend on length of helix.^67 The amplitude increases as α-helical chain length increases. Therefore, one has to consider the importance of chain-length dependence of the α-helix CD in the quantitative treatment of helix content in proteins and polypeptides. The percentage of helicity is independent of SDS concentration and pH (data not shown). In the presence of zwitterionic bicelles all of the glycopeptides yielded CD spectra similar to that observed in H2O, but anionic bicelles forced them to become more helical. The intensities of the [θ]π→π* band and the [θ]n→π* band are expected to be almost equal for a perfect α-helical peptide. […] A modest blue shift and reduced intensity for the [θ]n→π* transition bands are observed for all the glycopeptides in TFE. […] The glycopeptides 9 (Pro/Glc) and 12 (Pro/Lactose), which differ only by the sugar moiety attached, adopt perfect helices in the presence of SDS micelles and in anionic bicelles. The disaccharide increased the percentage of helicity in all the solvents, relative to the monosaccharide. […] It is remarkable to note that a single amino acid mutation at position 6 produced profound changes in the CD spectra. […]

[2] = biological target: μ opioid receptor (Homo sapiens, UniProt P35372); assay: opioid receptor binding, μ receptor
[3] = biological target: δ opioid receptor (Homo sapiens, UniProt P41143); assay: opioid receptor binding, δ receptor
[4] = in vivo antinociception after i.c.v. administration; design: species or system mice; details: i.c.v., mice; for A50 i.c.v.: antinociception
[5] = helicity by NMR αCH chemical shift index; type: physicochemical
Experimental: NMR Spectroscopy. All NMR spectra were recorded on a Bruker DRX600 600 MHz spectrometer. Glycopeptide concentration for the NMR experiments varied from 2-3 mM. The glycopeptides were prepared in TFE-water solution by dissolving the peptide in 0.6 ml solution of a premixed 30% TFE-water mixture. The micelle samples were prepared by dissolving the glycopeptide and 100 equivalent of perdeuterated SDS in 0.6 ml of H2O/D2O (9:1 ratio by volume). Bicelles were produced from deuterated phospholipids. The zwitterionic bicelles were made by mixing the short chain phospholipid dihexanoyl-sn-glycero-3-phosphatidylcholine-d22 (DHPC) and the long chain 1,2-dimyristoyl-sn-glycero-3-phosphatidylcholine-d54 (DMPC) in the molar ratio of 2:1 in H2O. The […] were prepared by substituting 10 mol % of 1,2-dimyristoyl-sn-glycero-3-phospho-1-glycerol-d54 (DMPG) for DMPC. The glycopeptide to bicelle ratio was 1:25. After the glycopeptide was added to the bicelle solution, the system was submitted to a series o f three freeze/thaw/slight vortex shaking cycles. The pH of the each sample was adjusted to 4.5 by using DCl or NaOD as necessary. TSP (3-(trimethylsilyl)-d4-propionic acid) was added as an internal standard. The experiments in F3CCD2OD/H2O mixtures were at 293 K and for experiments in micelles/bicelles were at 298 or 311 K. Two-dimensional double quantum filtered correlation (DQF-COSY), rotating-frame Overhauser enhancement^56 (ROESY), Nuclear Overhauser enhancement^57 (NOESY), and total correlation spectra^58 (TOCSY) were acquired using standard pulse sequences and processed using XWINNMR (Bruker Inc) and FELIX2000 (Accelrys Inc, San Diego, Calif.), Mixing times for TOCSY spectra were either 80 or 100 ms. Mixing times for ROESY spectra were 150 or 250 ms, and for NOESY spectra were 200 or 300 ms. All experiments were 750 increments in t1, 16/32/64 scans each, 1.5 s relaxation delay, size 2 or 4K, and the spectral processing was with shifted sine bell window multiplications in both dimensions.
αCH Chemical Shift Index. […] At this point there is no accepted random coil αCH values for glycosylated serine, CSI values for this position are uncertain. The conformational shift values for all solvents were obtained using the random coil values described by Wright and co-workers.^72 Although, these reference shifts were obtained at pH=5.0 at 4.2° C., they appear to be very insensitive to the conditions, as very small deviations (±0.04) were observed when random coil values are obtained at pH=7.0 at 35° C. by Wuthrich and co-workers.^68 The quantification of secondary structure based on αCH chemical shifts is neglected in the literature because various contributions cannot be strictly accounted for, such as electrostatic effects, ring current shifts, and other magnetic anisotropies. However, it is possible to make qualitative comparison of helical content between closely related (glyco)peptides. Since the 3rd generation glycopeptides differ by only one amino acid at position 6, the helical content was obtained based on the αCH chemical shift values (Table 3). The method described by Gierasch and co-workers^69a was used. First, the average conformational shift was calculated for each glycopeptide by adding all upfield shifts in the helical regions and dividing by the total number of peptide bonds. Then, to obtain the overall helical content for each glycopeptide, the average conformational shift was divided by 0.35 ppm, which was assigned for 100% helicity. Since, there are no random coil values available for β-Alanine and glycosylated serine residues, they were not included in the calculation. The helicogenic Aib residue lacks an α-proton, and there was no correction included in the calculation for the helicity provided by Aib residue. The helical content obtained by this method correlated with the helical content obtained by CD. […]

[6] = biological target: delta opioid receptor; assay: opioid receptor assay, format not described (Table 1, δ IC50)
[7] = biological target: mu opioid receptor; assay: opioid receptor assay, format not described (Table 1, µ IC50)
Chain of mu opioid receptor (P35372 whole entry): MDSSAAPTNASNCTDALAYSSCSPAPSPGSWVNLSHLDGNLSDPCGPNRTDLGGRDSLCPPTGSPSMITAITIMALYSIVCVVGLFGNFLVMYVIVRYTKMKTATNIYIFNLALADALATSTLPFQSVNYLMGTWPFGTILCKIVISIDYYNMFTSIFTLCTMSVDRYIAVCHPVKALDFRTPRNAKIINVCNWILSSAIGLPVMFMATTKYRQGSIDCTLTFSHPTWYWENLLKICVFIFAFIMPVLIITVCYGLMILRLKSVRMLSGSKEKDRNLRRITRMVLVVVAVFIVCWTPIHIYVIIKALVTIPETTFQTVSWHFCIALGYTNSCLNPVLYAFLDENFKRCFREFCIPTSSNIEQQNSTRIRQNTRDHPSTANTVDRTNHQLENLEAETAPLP

Chain of μ opioid receptor (P35372 whole entry): as above
Chain of δ opioid receptor (P41143 whole entry): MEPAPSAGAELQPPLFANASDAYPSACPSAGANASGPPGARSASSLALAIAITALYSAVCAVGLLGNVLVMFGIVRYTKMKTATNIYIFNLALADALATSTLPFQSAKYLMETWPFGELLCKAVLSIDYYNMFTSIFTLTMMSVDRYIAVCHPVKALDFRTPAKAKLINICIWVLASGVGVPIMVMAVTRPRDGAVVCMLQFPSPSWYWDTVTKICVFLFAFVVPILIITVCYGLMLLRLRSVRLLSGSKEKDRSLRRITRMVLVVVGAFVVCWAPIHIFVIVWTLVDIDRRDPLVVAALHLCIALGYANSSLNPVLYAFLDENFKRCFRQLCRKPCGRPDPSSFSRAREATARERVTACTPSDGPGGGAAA

Molecule | % α-helicity [1] [%] | IC50 [6] [nM] | IC50 [7] [nM] | further results
CC(C)C[C@H](NC(=O)CNC(=O)[C@H](CC(C)C)NC(=O)[C@H](Cc1ccccc1)NC(=O)CNC(=O)[C@H](NC(=O)[C@@H](N)Cc1ccc(O)cc1)[C@H](C)O)C(=O)N[C@@H](CC(C)C)C(=O)N[C@@H](CCCCN)C(=O)N[C@@H](CO[C@@H]1O[C@H](CO)[C@@H](O)[C@H](O)[C@H]1O)C(=O)N[C@@H](Cc1ccccc1)C(=O)N[C@@H](C)C(=O)N[C@@H](CCC(=O)O)C(=O)N[C@@H](CO[C@@H]1O[C@H](CO)[C@@H](O)[C@H](O)[C@H]1O)C(=O)N[C@@H](Cc1c[nH]c2ccccc12)C(=O)N[C@@H](CO[C@@H]1O[C@H](CO)[C@@H](O)[C@H](O)[C@H]1O)C(=O)N[C@@H](CC(N)=O)C(=O)N[C@@H](Cc1ccccc1)C(N)=O (relative stereo) [Glycopeptide 6, YtGFLGLLKS*FAES*WS*NF] | 37 |  |  | IC50 [2]: 154 nM; IC50 [3]: 11.9 nM; A50 i.c.v. [4]: 0.028 nmol
CC(C)C[C@H](NC(=O)[C@H](Cc1ccccc1)NC(=O)CNC(=O)[C@H](NC(=O)[C@@H](N)Cc1ccc(O)cc1)[C@H](C)O)C(=O)NCC(=O)N[C@@H](CCCCN)C(=O)N[C@@H](CO[C@@H]1O[C@H](CO)[C@@H](O)[C@H](O)[C@H]1O)C(=O)N[C@@H](Cc1ccccc1)C(=O)N[C@@H](C)C(=O)N[C@@H](CCC(=O)O)C(=O)N[C@@H](CC(C)C)C(=O)N[C@@H](Cc1c[nH]c2ccccc12)C(=O)N[C@@H](CO[C@@H]1O[C@H](CO)[C@@H](O)[C@H](O)[C@H]1O)C(=O)N[C@@H](CC(N)=O)C(=O)N[C@@H](Cc1ccccc1)C(=O)N[C@@H](CC(C)C)C(=O)N[C@@H](CO[C@@H]1O[C@H](CO)[C@@H](O)[C@H](O)[C@H]1O)C(N)=O (relative stereo) [Glycopeptide 7, YtGFLGKS*FAELWS*NFLS*] | 15 |  |  | IC50 [2]: 38.2 nM; IC50 [3]: 25.6 nM; A50 i.c.v. [4]: 0.096 nmol
YtGFLGALKS*FAES*LS*NA [Glycopeptide 5] | 58 |  |  | 
YtGFLGLLKS*FWES*WS*NF [Glycopeptide 8] | 39 |  |  | in vivo potency and duration of action (in words) ([4]; within 2nd generation series): lowest potency in vivo, but longest duration of action
YtGFLPNLBEKALKS**L [Glycopeptide 12] |  |  |  | % α-helicity by CD ([1]; solvent Bicelle A (anionic bicelles)): 33%; % α-helicity by CD ([1]; solvent H2O): >1%; % α-helicity by CD ([1]; solvent SDS micelles): 33%; % α-helicity by CD ([1]; solvent TFE): 23%; % α-helicity by NMR ([5]; solvent H2O): 22%; % α-helicity by NMR ([5]; solvent SDS micelles): 29%; % α-helicity by NMR ([5]; solvent TFE): 34%
Y[dT]GFLGKS(βGlc)FAELWS(βGlc)NFLS(βGlc)-NH2 [Glycopeptide 7 (YtGFLGKS*FAELWS*NFLS*)] |  | 25.6 | 38.2 | 
Y[dT]GFLPNL[Aib]EKALKS(βGlc)L-NH2 [Glycopeptide 9 (YtGFLPNLBEKALKS*L)] |  | 6.15 | 90.8 | 
Y[dT]GFLGELAS(βGlc)KWFNALES(βGlc)-NH2 [Glycopeptide 2 (YtGFLGELAS*KWFNALES*)] |  | 9.5 | 144 | 
Y[dT]GFLGGNL[Aib]EKALKS(βGlc)L-NH2 [Glycopeptide 11 (YtGFLGGNLBEKALKS*L)] |  | 32.5 | 53 | 
Y[dT]GFL[βAla]NL[Aib]EKALKS(βGlc)L-NH2 [Glycopeptide 10 (YtGFLβANLBEKALKS*L)] |  | 109 | 153 | 
Y[dT]GFLGLLKS(βGlc)FAES(βGlc)WS(βGlc)NF-NH2 [Glycopeptide 6 (YtGFLGLLKS*FAES*WS*NF)] |  | 11.9 | 154 | 
